This passage reports Zone of inhibition and Infection index results from patent US20190166835A1, “Fungal Trisaccharide Ester Compounds and Use Thereof in Preparing Agents for Preventing and Controlling Plant Fungal Diseases” (SOUTH CHINA BOTANICAL GARDEN, CHINESE ACADEMY OF SCIENCES, priority 2017, published 2019).

The subject of assay [1] is Botryospuaeria berengeriana. The assay can be described thus: agar diffusion test, in vitro inhibitory activity. As to conditions: 500 μg per 6 mm filter paper, PDA, 28° C., 72 or 96 hours. It is filed as cell-based. An excerpt:
(§1) Experiment of in vitro inhibitory activities of the trisaccharide ester compounds 1 to 5 obtained in embodiment 2 against common plant pathogenic fungi of twelve genus.
(§2) The fungi used in the experiments include: 1) Alternaria solani (causing early blight of tomatoes), 2) Botryospuaeria berengeriana (causing ring rot of apples), 3) Botrytis cinerea (causing grey mould of tomatoes), 4) Colletotrichum gloeosporioides (causing anthracnose of mangos), 5) Curvularia lunata (which will infect bananas), 6) Fusarium oxysporium (causing fusarium wilt of bananas and watermelons), 7) Geotrichum citri-aurantii (causing sour rot of citrus), 8) Helminthosporium maydis (causing southern corn leaf blight), 9) Penicillium italicum (causing blue mould of citrus), 10) Peronophythora litchii (which will infect litchi), 11) Rhizoctonia solani (causing sheath blight of rice), and 12) Ustilaginoidea virens (causing false smut of rice).
(§3) The antifungal activities of the compounds 1 to 5 were determined by the agar diffusion test. The fungi were activated and respectively seeded onto petri dishes containing PDA solid culture medium, and spread uniformly with T-shaped spreaders. Each compound was dissolved in methanol to give a 50 mg/mL solution. 10 μL of the solution was then added dropwise onto a filter paper (with a diameter of 6 mm) and let dry in the clean bench such that each filter paper contained 500 μg of the compound eventually. The filter papers were then pressed to the pertri dishes mentioned above and left to incubate in dark at 28° C. for 72 or 96 hours, and then the inhibition widths were measured (a inhibition width refers to an average diameter of the zones of inhibition), wherein filter papers containing a same volume of methanol were used as negative controls.
(Agar diffusion results depend on both activity and mobility in agar.)

Assay [2] has as its system Geotrichum citri-aurantii. As to the kind of experiment: agar diffusion test, in vitro inhibitory activity. As to conditions: 500 μg per 6 mm filter paper, PDA, 28° C., 72 or 96 hours. It is filed as cell-based.
Excerpt: as §1, §2, §3

In assay [3] the test system is Botrytis cinerea. The assay can be described thus: agar diffusion test, in vitro inhibitory activity. The format is cell-based. To be noted: 500 μg per 6 mm filter paper, PDA, 28° C., 72 or 96 hours.
Excerpt: as §1, §2, §3

Assay [4] concerns Rhizoctonia solani. As to the kind of experiment: agar diffusion test, in vitro inhibitory activity. It is filed as cell-based. As to conditions: 500 μg per 6 mm filter paper, PDA, 28° C., 72 or 96 hours.
Excerpt: as §1, §2, §3

Assay [5] concerns Helminthosporium maydis. The assay can be described thus: agar diffusion test, in vitro inhibitory activity. As to conditions: 500 μg per 6 mm filter paper, PDA, 28° C., 72 or 96 hours. The format is cell-based.
Excerpt: as §1, §2, §3

Assay [6] deals with Penicillium italicum. As to the kind of experiment: agar diffusion test, in vitro inhibitory activity. The format is cell-based. To be noted: 500 μg per 6 mm filter paper, PDA, 28° C., 72 or 96 hours.
Excerpt: as §1, §2, §3

The subject of assay [7] is Peronophythora litchii. As to the kind of experiment: agar diffusion test, in vitro inhibitory activity. It is filed as cell-based. As to conditions: 500 μg per 6 mm filter paper, PDA, 28° C., 72 or 96 hours.
Excerpt: as §1, §2, §3

In assay [8] the test system is Fusarium oxysporium. As to the kind of experiment: agar diffusion test, in vitro inhibitory activity. The format is cell-based. As to conditions: 500 μg per 6 mm filter paper, PDA, 28° C., 72 or 96 hours.
Excerpt: as §1, §2, §3

The subject of assay [9] is Colletotrichum gloeosporioides. The assay can be described thus: agar diffusion test, in vitro inhibitory activity. The format is cell-based. As to conditions: 500 μg per 6 mm filter paper, PDA, 28° C., 72 or 96 hours.
Excerpt: as §1, §2, §3

Assay [10] deals with Ustilaginoidea virens. As to the kind of experiment: agar diffusion test, in vitro inhibitory activity. To be noted: 500 μg per 6 mm filter paper, PDA, 28° C., 72 or 96 hours. It is filed as cell-based.
Excerpt: as §1, §2, §3

Assay [11] deals with Alternaria solani. As to the kind of experiment: agar diffusion test, in vitro inhibitory activity. The format is cell-based. To be noted: 500 μg per 6 mm filter paper, PDA, 28° C., 72 or 96 hours.
Excerpt: as §1, §2, §3

Assay [12] deals with Curvularia lunata. As to the kind of experiment: agar diffusion test, in vitro inhibitory activity. The format is cell-based. As to conditions: 500 μg per 6 mm filter paper, PDA, 28° C., 72 or 96 hours.
Excerpt: as §1, §2, §3

For assay [13], the system named is pathogenic fungi in the postharvest storage of citrus fruits. The assay can be described thus: preservation of citrus in postharvest storage (infection index). It is filed as in vivo, citrus reticulata blanco cv.shiyueju. As to conditions: soaked 5 minutes, stored at 25° C. for 15 days. How it is done: Experiment of the trisaccharide ester extract obtained in embodiment 2 in the preservation of citrus in postharvest storage Samples for the experiment: the trisaccharide ester extract (containing the compounds 1 to 4, with a mass ratio of about 60:35:4:1) obtained in embodiment 2 was dissolved in a small volume of ethanol and diluted with water to give treating solutions (200, 400 and 600 mg/L). The citrus fruits were soaked in the treating solutions for 5 minutes and left to dry. The fruits were then put in plastic baskets (the plastic baskets were surface-sterilized with 75% ethanol and left to dry in advance), sealed in polyethylene bags with a thickness of 0.02 mm, and stored at 25° C. for 15 days. The fruits were observed and their infection indexes were recorded. Calculation of the infection index: infection index=Σ(infection level×amount of fruits of the level)/([…]×total amount of fruits)×100%; infection level: 0 refers to “no obvious infection”, 1 refers to “slight infection”, 2 refers to “infection area smaller than or equal to ¼ of fruit surface”; 3 refers to “infection area larger than ¼ and smaller than ½ of fruit surface”, and 4 refers to “infection area larger than or equal to ½ of fruit surface”. Three replicates were set for each treating solution, and 60 fruits for each replicate. Fruits for the experiments: citrus reticulata blanco cv.shiyueju, harvested from Conghua Orchard.

Turning to `CCC(C)CCCCCCC(=O)O[C@@H]1C(CO[C@H]2OC(CO)[C@H](O)C(O)C2O)O[C@H](O[C@H]2OC(COC(C)=O)[C@@H](O)C(O)C2O)C(OC(=O)CCC(C)CC)C1OC(=O)C(C)CC` (single isomer, unassigned) [Compound 5, 6-O-β-L-mannosyl-3-O-(2-methylbutyryl)-4-O-(8-methyldecanoyl)-2-O-(4-methylhexanoyl)-6′-O-acetyltrehalose], the Zone of inhibition came out at 8 mm in assay [1]; 15 mm in assay [2]; 9 mm in assay [3]; 12 mm in assay [4]; 18 mm in assay [5]; 14 mm in assay [6]. The Zone of inhibition in assay [7] is recorded as 10 mm; in assay [8], 8 mm; in [9], 8 mm; in assay [10], 16 mm; in assay [11] it was 10 mm; in assay [12], 16 mm.

Turning to `CCC(C)CCCCCCC(=O)O[C@@H]1C(CO[C@H]2OC(CO)[C@H](O)[C@H](O)C2O)O[C@H](O[C@H]2OC(CO)[C@@H](O)[C@H](O)C2O)C(OC(=O)CCC(C)CC)[C@H]1OC(=O)C(C)CC` (stereo partly drawn) [Compound 1, 6-O-β-L-mannosyl-3-O-(2-methylbutyryl)-4-O-(8-methyldecanoyl)-2-O-(4-methylhexanoyl)trehalose], the Zone of inhibition in assay [1] stood at 16 mm; in [2], 17 mm; in [3] it was 15 mm; in assay [4], 18 mm; in [5] it was 22 mm; in [6] it was 20 mm. In addition, the Zone of inhibition is listed as 13 mm in assay [7]; 10 mm in [8]; 12 mm in [9]; 22 mm in assay [10]; 12 mm in [11]; 12 mm in [12].

In the case of `CCCCCCCCCC(=O)O[C@@H]1C(CO[C@H]2OC(CO)[C@H](O)[C@H](O)C2O)O[C@H](O[C@H]2OC(CO)[C@@H](O)[C@H](O)C2O)C(OC(=O)CCC(C)CC)[C@H]1OC(=O)C(C)CC` (stereo partly drawn) [Compound 2, 4-O-decanoyl-6-O-β-L-mannosyl-3-O-(2-methylbutyryl)-2-O-(4-methylhexanoyl)trehalose], the Zone of inhibition in assay [1] came to 14 mm; in assay [2], 15 mm; in assay [3], 14 mm; in assay [4] it was 16 mm; in [5], 18 mm; in [6] it was 22 mm. The Zone of inhibition was 12 mm in [7]; 12 mm in assay [8]; 10 mm in assay [9]; 20 mm in assay [10]; 14 mm in assay [11]; 15 mm in [12].

`CCCCCCCC(=O)O[C@@H]1C(CO[C@H]2OC(CO)[C@H](O)[C@H](O)C2O)O[C@H](O[C@H]2OC(CO)[C@@H](O)[C@H](O)C2O)C(OC(=O)CCC(C)CC)[C@H]1OC(=O)C(C)CC` (stereo partly drawn) [Compound 4]: the Zone of inhibition in [1] was found to be 10 mm; in assay [2], 12 mm; in [3], 10 mm; in [4], 18 mm; in assay [5] it was 18 mm; in assay [6], 18 mm. Besides, the Zone of inhibition in assay [7] was 12 mm; in [8], 10 mm; in [9], 14 mm; in [10], 20 mm; in assay [11], 12 mm; in assay [12] it was 15 mm.

In the case of `CN(C)C(=S)SSC(=S)N(C)C` [Thiram], the Infection index in assay [13] (treating solution 200 mg/L) turned out to be 29.0 ± 1.9%; in assay [13] (treating solution 400 mg/L) it was 31.4 ± 0.9%; in [13] (treating solution 600 mg/L) it was 29.2 ± 1.0%.
